Measured values from US8383660B2, “Dibenzyl amine compounds and derivatives” (Pfizer Inc., priority 2006, dated 2013).
Counter-ions that a name gives are not always drawn.

melting point: 95 °C
SMILES: CCOCC1(F)CCN([C@@H](c2ccc(C(F)(F)F)cc2CN(Cc2cc(C(F)(F)F)cc(C(F)(F)F)c2)c2nnn(C)n2)C(C)C)CC1 (as salt: mesylate) [Example 213, (N-[3,5-bis(trifluoromethyl)benzyl]-N-[2-{(1R)-1-[4-(ethoxymethyl)-4-fluoropiperidin-1-yl]-2-methylpropyl}-5-(trifluoromethyl)benzyl]-2-methyl-2H-tetrazol-5-amine)]
